Data published in PubChem BioAssay (NCI).
Where “and” joins values, the source holds several entries; their conditions need not be identical. Equal values may be shown once.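 Cells were grown in 96-well plates and exposed to each compound for 48 hours at five concentrations; endpoints were interpolated linearly between bracketing concentrations, or set to the highest concentration if not reached. The concentration for 50% growth inhibition is given as GI50. TGI denotes the concentration required for complete inhibition of growth.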 Calls of active or inactive are those of the source. Cut-off read from the data, not from the text of the source: active = GI50 below about 0.43 µM; inactive = the rest.

Assays:
Assay in all cases: NCI-60 cell line screen, 48 h
[1] = system: SF-295 CNS
[2] = system: U251 CNS
[3] = system: HOP-92 NSCLC
[4] = system: UACC-257 melanoma
[5] = system: SK-MEL-2 melanoma
[6] = system: OVCAR-3 ovarian
[7] = system: DU-145 prostate
[8] = system: NCI-H23 lung

| Structure (SMILES) | GI50 [1] [µM] | TGI [1] | GI50 [2] [µM] | TGI [2] | GI50 [3] [µM] | TGI [3] | GI50 [4] [µM] | TGI [4] | GI50 [5] [µM] | TGI [5] [µM] | GI50 [6] [µM] | TGI [6] | GI50 [7] [µM] | TGI [7] | GI50 [8] [µM] | TGI [8] | outcome [1] | outcome [6] | outcome [7] |
| --- | --- | --- | --- | --- | --- | --- | --- | --- | --- | --- | --- | --- | --- | --- | --- | --- | --- | --- | --- |
| CC/C=C\C[C@@H](O)C/C=C1/C(=O)C=C[C@H]1C/C=C\CCCC(=O)OC | 2.97 | 9.27 µM | 3.18 | 10.5 µM | 4.54 | 15.2 µM | 3.38 | 8.36 µM | 6.99 | 21.6 | 3.1 | 10.3 µM | 3.33 | 12.3 µM | 2.4 | 6.63 µM |  |  |  |
| O=C1C(Cl)=C(NCCN2CCOCC2)C(=O)c2ncccc21 |  | 3.33 µM and 3.3 µM | 1.87 | 3.12 µM and 3.3 µM |  | 3.84 µM and 5.47 µM | 1.37 | 3.13 µM and 2.69 µM | 2.16 | 4.37 |  | 3.69 µM and 3.01 µM |  | 3.11 µM and 3.14 µM | 1.25 | 3.75 µM and 3.52 µM |  |  |  |
| C[N+]1=C(/C=C/c2ccc(O)c3ncccc23)C(C)(C)c2ccccc21 | 2.21 | 5.24 µM | 2.4 | 17.1 µM | 2.22 | 7.67 µM | 3.81 | 13.5 µM | 3.88 | 24 | 2.1 | 5.46 µM | 2.98 | 12.1 µM | 2.62 | 8.54 µM |  |  |  |
| CCCCCCCC(=O)OCC/C=C/C1OC1C1OC(=O)/C=C\C=C\c2nc(oc2C)/C=C(/C)CCC2OC2C1OC(=O)NC(C)=O (configuration not stated) | 0.00904 | 0.0548 µM | 0.0497 | 3.11 µM | 0.0283 | 0.168 µM | 0.0301 | 0.125 µM | 0.0222 | 0.0647 | 0.0537 | 0.142 µM | 0.0526 | 1.37 µM | 0.023 | 0.108 µM |  |  |  |
| COc1ccc2c(c1)CCCN2c1c2ccccc2nc2ccccc12 | 0.281 | > 100 µM | 0.379 | > 100 µM | 0.683 | 6.46 µM | 8.11 | > 100 µM | 0.813 | > 100 | 0.275 | 0.75 µM | 0.38 | > 100 µM | 0.356 | 5.48 µM |  |  |  |
| O=C(CC1C(=O)NN(c2ccc(Br)cc2)C1=O)c1cc(O)ccc1O (configuration not stated) | 11 | 29.7 µM | 14.2 | 36 µM | 11.6 | > 50 µM | 19.6 | > 50 µM | 36.5 | > 50 | 7.41 | 21.7 µM | 21.2 | > 50 µM | 19.8 | > 50 µM |  |  |  |
| Cc1cc(-c2cnn3c(NCC4CC(C)(O)C4)cc(Oc4cccnc4)nc23)ccc1C(=O)NC1CC1 (configuration not stated) | 3.28 | > 100 µM | 4.18 | > 100 µM | 6.42 | > 100 µM | > 100 | > 100 µM | 1.95 | > 100 | > 100 | > 100 µM | 2.26 | > 100 µM | > 100 | > 100 µM |  |  |  |
| CCCCCCCC[C@@H](O)CC(=O)N[C@@H](CC(N)=O)C(=O)N[C@@H](CCC(N)=O)C(=O)N[C@@H](CC(=O)c1cc(C)cc(O)c1C(=O)c1c(O)cccc1O)CC(C)C | 1.97 | 7.53 µM | 0.265 | 2.33 µM | 0.201 | 0.939 µM | 0.45 | 4.68 µM | 2.76 | 8.32 | 0.307 | 1.2 µM | 1.14 | 18.3 µM | 1.36 | 14.8 µM |  |  |  |
| O=c1cc(-c2ccccc2)oc2cc(OC/C(=N/O)c3ccccc3)ccc12 | 6 | 23.4 µM | 10.1 | 20 µM | 13.8 | > 50 µM | > 50 | > 50 µM | 20.2 | > 50 | 12.8 | > 50 µM | 25.1 | > 50 µM | 22.6 | > 50 µM |  |  |  |
| COc1ccc(C(=O)C#Cc2cnc(OC)nc2OC)cc1 |  | 24.8 µM | 58900 | 2.62 µM | 19700 |  | 40800 | 5.63 µM | 36100 |  |  | 3.24 µM |  | 4.86 µM | 35000 | 3.08 µM | inactive | inactive | inactive |
| O=C(CCc1nnc2sc(-c3ccc(Cl)cc3Cl)nn12)c1nc2ccccc2[nH]1 | 1.65 | 5.56 µM | 0.932 | 2.26 µM | 0.391 | 1.86 µM | 1.83 | 4.31 µM | 1.78 | 5.4 | 0.491 | 1.71 µM | 1.15 | 2.38 µM | 0.694 | 3 µM |  |  |  |
| CC1CN1C(=O)NCCCCCCNC(=O)N1CC1C (configuration not stated) |  | > 100 µM |  | > 100 µM |  | > 100 µM |  | > 100 µM |  | > 100 |  | > 100 µM |  | > 100 µM |  | > 100 µM |  |  |  |
| Cc1ccc(-c2nc3nc(-c4ccccc4)nc(N4CCCNCC4)c3o2)cc1 | 1.77 | 3.33 µM | 1.54 | 2.91 µM | 1.44 | 3.01 µM | 1.72 | 3.26 µM | 2.11 | 3.84 | 1.84 | 3.32 µM | 1.82 | 3.3 µM | 1.89 | 3.8 µM |  |  |  |
| CS(=O)(=O)c1ccc(-n2nc(C(F)(F)F)cc2OC2CCCC2)cc1 | 37.4 | > 100 µM | 22.1 | 75 µM | 50.7 | > 100 µM | 40.1 | > 100 µM | > 100 | > 100 | 32.9 | > 100 µM | 38.9 | > 100 µM |  |  |  |  |  |
| COc1cc[nH]c1/C=C1\C(=O)Nc2ccc(F)c(C#CC3(O)CCNCC3)c21 | 0.287 | 2.8 µM | 0.0736 | 0.984 µM | 0.106 | 0.794 µM | 0.363 | 1.6 µM | 0.00988 | 0.464 | 0.35 | 1.55 µM | 0.0429 | 2.14 µM | 0.161 | 1.14 µM |  |  |  |
| O=C(O)c1nn(-c2ccccc2-c2n[nH]c(=O)[nH]c2=O)c(=O)[nH]c1=O |  | > 100 µM |  | > 100 µM |  | > 100 µM |  | > 100 µM |  | > 100 |  | > 100 µM |  | > 100 µM |  | > 100 µM |  |  |  |
